The source of these data is patent publication US6323001A, “Increasing the trehalose content of organisms by transforming them with combinations of the structural genes for trehalose synthase” (BTG International Ltd., priority 1994, dated 2001).

SMILES strings stand for the structures. Where two headings read alike, the source gives them in different places.

Assay [1] addresses Tre6Pase activity of truncated trehalose synthase (Saccharomyces cerevisiae, UniProt P31688). In words: Tre6Pase assay of truncated trehalose synthase. In kind it is biochemical, baker's yeast. The method, then:
(§1) With microbial materials, Tre6Pase and Tre6P synthase standard assays and other kinetic measurements were made as described by Londesborough & Vuorio [(1991) loc. cit.] except that the standard Tre6P synthase assay mixture contained 5 mM F6P unless stated otherwise.
(§2) Truncated trehalose synthase containing the short (57 kDa) chain and the 86 and 93 kDa long chain fragments was prepared according to the method of Londesborough & Vuorio (1991) loc. cit.] for proteolytically activated TPS/P complex. Tre6P synthase and Tre6Pase activities were assayed as described by Londesborough & Vuorio [(1991) loc. cit.]. [N-ethyl-1-^14C]-maleimide (ethyl-labelled NEM; 40 mCi/mmol) was NEC-454 from New England Nuclear. N-ethyl-[2,3-^14 C]-maleimide (ring-labelled NEM; 6 mCi/mmol) was CFA 293 from Amersham International. Both were obtained as solutions in n-pentane and the manufacturer's stated specific activities were assumed to be correct. Unlabelled N-ethyl-maleimide (NEM) was E-3876 from Sigma. It was dissolved in 25 mM HEPES pH 7.0 immediately before use and standardized by absorption measurements at 305 nm, assuming an E^mM of 0.62.
(§3) In one experiment, 2.0 μl of 2.4 mM ethyl-labelled NEM was mixed with 150 μl of gel-filtered enzyme and incubated at 23° C. Samples (10 μl) taken at various times up to 190 min were mixed with 60 μl of Laemmli sample buffer (the mercapto-ethanol in this buffer should destroy residual NEM), boiled for 5 min and subjected to SDS-PAGE. At closely similar times (and also at 23 h) other samples (10 μl) were mixed with 100 μl (for Tre6P synthase) or 700 μl (for Tre6Pase) of 5 mg BSA/ml 25 mM HEPES pH 7.0 containing 2 mM MgCl2, 1 mM EDTA, 0.2 M NaCl and 1 mM dithiothreitol (the dithiothreitol should destroy residual NEM) and assayed for Tre6P synthase and Tre6Pase.
(§4) Truncated trehalose synthase was prepared as described by Londesborough & Vuorio [(1991) loc. cit.] and contained the 57 kDa short chain and 86 and 93 kDa fragments of the long chain. Intact trehalose synthase was prepared as in Example 1. Kinetic assays were done at 30° C. as described in General Methods and Materials.

Assay [2] addresses T1, Tre6P synthase activity of truncated trehalose synthase (Saccharomyces cerevisiae, UniProt Q00764).
T1 construct: contained the 57 kDa short chain; made in house; host or cells: baker's yeast (native enzyme, proteolytically truncated during purification)
T1 sequence (Q00764 1-495): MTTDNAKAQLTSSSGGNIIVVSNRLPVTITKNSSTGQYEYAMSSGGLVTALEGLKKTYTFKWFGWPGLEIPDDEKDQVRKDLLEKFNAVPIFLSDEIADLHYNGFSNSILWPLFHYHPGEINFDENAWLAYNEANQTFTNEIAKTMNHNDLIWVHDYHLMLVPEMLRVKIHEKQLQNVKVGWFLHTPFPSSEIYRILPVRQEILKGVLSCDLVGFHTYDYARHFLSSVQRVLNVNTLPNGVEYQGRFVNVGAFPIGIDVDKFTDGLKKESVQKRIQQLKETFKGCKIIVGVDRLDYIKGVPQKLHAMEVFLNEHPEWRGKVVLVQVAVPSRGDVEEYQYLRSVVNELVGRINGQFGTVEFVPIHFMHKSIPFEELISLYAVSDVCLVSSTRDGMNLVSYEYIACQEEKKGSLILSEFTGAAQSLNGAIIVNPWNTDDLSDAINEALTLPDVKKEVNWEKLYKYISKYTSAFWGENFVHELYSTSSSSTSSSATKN
In words: Tre6P synthase assay of truncated trehalose synthase. In kind it is biochemical, baker's yeast. The method, then:
as §1, §2, §4

The target of assay [3] is T2, Tre6P synthase activity of intact trehalose synthase (Saccharomyces cerevisiae, UniProt Q00764).
T2 construct: Intact trehalose synthase was purified from commercial baker's yeast; made in house; host or cells: commercial baker's yeast (native enzyme purified, not recombinant)
In words: Tre6P synthase assay of intact trehalose synthase. To be noted: 5 or 2.5 mM; 1 mM F6P at 1.3 mM phosphate. It counts as biochemical, baker's yeast. The method, then:
as §1
Removal of the N-terminal 325 or so amino acids from the 123 kDa long chain of intact trehalose synthase by treatment with trypsin in vitro produces an enzyme with catalytic properties like those of the truncated enzyme purified by Londesborough & Vuorio [(1991) loc. cit.]. In one experiment intact trehalose synthase (0.28 Tre6P synthase units, ≈9.4 μg) was incubated with or without 0.5 μg of trypsin at 30° C. in 250 μl of 13 mM HEPES pH 7.0 containing 1 mM MgCl2, 0.5 mM EDTA, 0.5 mM dithiothreitol, 0.2 M NaCl and 0.5 mM benzamidine. Its Tre6P synthase activity was determined at intervals using standard assay mixtures (containing 5 mM F6P) containing no or 4 mM K phosphate pH 6.8, and samples were prepared for SDS-PAGE analysis immediately before and 48 min after addition of the trypsin.
as §4

Assay [4] addresses T3, 93 and 86 kDa long chain fragments of truncated trehalose synthase (Saccharomyces cerevisiae, UniProt P38427).
T3 construct: 93 kDa band may also hold TPS2 fragment
The assay is described as follows: Labelling of truncated trehalose synthase with [14C]-NEM. In kind it is binding, baker's yeast. Conditions: for NEM entered the long chain fragments: 32 μM ethyl-labelled NEM; for NEM incorporated into long chain fragments at complete loss of Tre6Pase: per mole of truncated trehalose synthase, ring- and ethyl-labelled NEM. The method, then: as §3
After electrophoresis, the upper (cathode) buffer, containing most of the added radioactivity, was completely removed before disassembling the apparatus. The gel was then fixed, stained and destained as described by Laemmli [(1970) Nature, London 227, 680-685] and dried. […] The Coomassie blue stained bands and adjacent, empty areas (as blanks) were cut out of the dried gel (in later experiments, they were cut from undried gels), broken up and extracted overnight with 1 ml of 5% SDS in pre-blanked scintillation vials. Then 10 ml of a toluene/Triton X100-based scintillant was added, and the tubes were repeatedly counted using a wide energy window to minimise quench effects. After 10 h constant counting levels were reached. Excess radioactivity was calculated by subtracting a blank value obtained from empty regions of the gel.

Another assay concerns extract of X2180 yeast. The assay is described as follows: Synthesis of [14C]-trehalose from [U-14C]-G6P by extract of wild-type yeast. It counts as biochemical, S. cerevisiae. To be noted: 2.5 mM ADPG.

T3 sequence (P38427 336-1098): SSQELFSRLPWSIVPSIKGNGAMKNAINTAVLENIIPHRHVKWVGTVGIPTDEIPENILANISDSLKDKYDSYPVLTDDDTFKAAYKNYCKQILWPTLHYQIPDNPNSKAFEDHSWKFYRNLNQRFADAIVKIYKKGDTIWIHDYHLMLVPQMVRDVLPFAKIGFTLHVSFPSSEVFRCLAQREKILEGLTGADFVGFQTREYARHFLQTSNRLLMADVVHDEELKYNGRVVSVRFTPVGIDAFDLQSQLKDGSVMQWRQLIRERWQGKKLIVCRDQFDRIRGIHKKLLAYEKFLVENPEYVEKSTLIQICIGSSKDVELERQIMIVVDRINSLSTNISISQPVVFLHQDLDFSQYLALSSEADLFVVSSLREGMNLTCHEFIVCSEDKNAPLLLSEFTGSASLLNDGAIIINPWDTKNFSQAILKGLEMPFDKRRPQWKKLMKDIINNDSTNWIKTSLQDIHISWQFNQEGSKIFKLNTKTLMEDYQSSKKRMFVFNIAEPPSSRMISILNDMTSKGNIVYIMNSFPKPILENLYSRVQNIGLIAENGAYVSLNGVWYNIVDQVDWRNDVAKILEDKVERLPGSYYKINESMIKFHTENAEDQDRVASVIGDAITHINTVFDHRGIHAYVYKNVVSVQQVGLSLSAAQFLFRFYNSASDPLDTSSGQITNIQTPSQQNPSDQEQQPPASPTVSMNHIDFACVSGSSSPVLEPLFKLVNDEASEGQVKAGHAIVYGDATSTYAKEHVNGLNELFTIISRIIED
T2 sequence (P31688 whole entry, one chain of several): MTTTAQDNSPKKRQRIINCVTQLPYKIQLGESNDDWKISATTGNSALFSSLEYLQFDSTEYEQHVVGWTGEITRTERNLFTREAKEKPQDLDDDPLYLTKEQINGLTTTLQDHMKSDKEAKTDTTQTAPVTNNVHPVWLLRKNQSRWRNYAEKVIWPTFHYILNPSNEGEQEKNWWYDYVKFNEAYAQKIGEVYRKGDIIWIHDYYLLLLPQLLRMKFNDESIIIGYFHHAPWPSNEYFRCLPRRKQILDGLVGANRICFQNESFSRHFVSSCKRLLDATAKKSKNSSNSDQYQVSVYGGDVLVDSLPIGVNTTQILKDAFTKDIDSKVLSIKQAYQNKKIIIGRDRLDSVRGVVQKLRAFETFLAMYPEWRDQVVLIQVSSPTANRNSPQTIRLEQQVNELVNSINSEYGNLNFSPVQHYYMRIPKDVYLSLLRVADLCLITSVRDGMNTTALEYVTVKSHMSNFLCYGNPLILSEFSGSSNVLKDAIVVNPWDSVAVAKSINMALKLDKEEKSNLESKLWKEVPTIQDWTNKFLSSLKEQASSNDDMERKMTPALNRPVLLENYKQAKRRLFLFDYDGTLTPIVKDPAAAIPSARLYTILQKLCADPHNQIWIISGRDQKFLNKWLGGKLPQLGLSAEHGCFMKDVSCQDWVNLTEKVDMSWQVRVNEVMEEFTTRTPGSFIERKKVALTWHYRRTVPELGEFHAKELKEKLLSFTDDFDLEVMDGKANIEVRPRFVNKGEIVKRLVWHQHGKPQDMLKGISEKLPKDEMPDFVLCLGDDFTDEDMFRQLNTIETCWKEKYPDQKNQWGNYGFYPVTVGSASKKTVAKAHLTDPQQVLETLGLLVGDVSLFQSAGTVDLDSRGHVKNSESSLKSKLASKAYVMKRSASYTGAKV
T2 sequence (P38427 whole entry, one chain of several, further chain): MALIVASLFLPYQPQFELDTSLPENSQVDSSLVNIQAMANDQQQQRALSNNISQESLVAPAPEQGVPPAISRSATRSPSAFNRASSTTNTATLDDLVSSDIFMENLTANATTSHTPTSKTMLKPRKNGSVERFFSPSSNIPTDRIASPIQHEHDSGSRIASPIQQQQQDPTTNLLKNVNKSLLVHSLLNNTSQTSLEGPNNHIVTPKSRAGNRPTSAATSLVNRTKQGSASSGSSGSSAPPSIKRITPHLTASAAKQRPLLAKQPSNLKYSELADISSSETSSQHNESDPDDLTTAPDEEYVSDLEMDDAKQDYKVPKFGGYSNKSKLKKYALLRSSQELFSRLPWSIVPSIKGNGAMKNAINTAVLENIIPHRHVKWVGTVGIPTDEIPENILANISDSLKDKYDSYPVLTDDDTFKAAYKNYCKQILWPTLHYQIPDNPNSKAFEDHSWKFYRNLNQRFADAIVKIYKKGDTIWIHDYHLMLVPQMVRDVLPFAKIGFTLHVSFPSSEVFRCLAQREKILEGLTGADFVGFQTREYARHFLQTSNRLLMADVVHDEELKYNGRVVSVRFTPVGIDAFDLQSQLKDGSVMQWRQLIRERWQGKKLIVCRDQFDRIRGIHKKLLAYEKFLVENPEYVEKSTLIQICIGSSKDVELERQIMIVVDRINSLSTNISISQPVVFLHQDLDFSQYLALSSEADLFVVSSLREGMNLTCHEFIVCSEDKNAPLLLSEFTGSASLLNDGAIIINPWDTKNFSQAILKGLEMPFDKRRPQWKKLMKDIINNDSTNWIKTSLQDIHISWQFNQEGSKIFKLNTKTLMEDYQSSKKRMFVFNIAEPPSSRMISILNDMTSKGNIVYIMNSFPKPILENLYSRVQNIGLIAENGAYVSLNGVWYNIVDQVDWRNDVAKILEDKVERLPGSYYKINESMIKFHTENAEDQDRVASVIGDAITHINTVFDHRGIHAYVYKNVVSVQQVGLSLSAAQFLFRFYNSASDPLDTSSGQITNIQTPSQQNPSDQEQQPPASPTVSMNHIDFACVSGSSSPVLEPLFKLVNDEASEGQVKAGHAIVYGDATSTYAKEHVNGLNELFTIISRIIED
Tre6Pase activity of truncated trehalose synthase, sequence (P31688 whole entry, one chain of several, the tested form may be a part): as the sequence (P31688 whole entry, one chain of several) above
Tre6Pase activity of truncated trehalose synthase, sequence (P38427 336-1098, one chain of several, further chain): as the sequence (P38427 336-1098) above

As for `O=C(O)c1cc(SSc2ccc([N+](=O)[O-])c(C(=O)O)c2)ccc1[N+](=O)[O-]` [DTNB, dithiodinitro-benzoate], the inhibition at 900 µM in assay [1] (10 min, read-out: Tre6Pase lost, 0,9 mM DTNB, 10 min) is more than 95%; in assay [2] (10 min, 0,9 mM DTNB, 10 min, read-out: Tre6P synthase lost), less than 28%.
Turning to `O=C(COP(=O)(O)O)[C@@H](O)[C@H](O)[C@H](O)COP(=O)(O)O` [fructose-1,6-bisphosphate], in assay [3], the “inhibition of Tre6P synthase activity” value is on record as “about 25%”.
Turning to `CCN1C(=O)C=CC1=O` [NEM, N-ethyl-maleimide], the figures for the “NEM entered the long chain fragments” value in assay [4] (10.5 min) and in assay [4] (190 min) were 0.20 moles per mole (150 Kg) of enz and 0.32 moles per mole (150 Kg) of enz, respectively. In addition, the “NEM incorporated into long chain fragments at complete loss of Tre6Pase” value in assay [4] is listed as “less than 1 mole”; in assay [4] (listed as 14C-N-ethylmaleimide) it was “about 1 mole”. Besides, the inhibition at 32 µM turned out to be 30% in assay [1] (0.175 h, read-out: initial Tre6Pase lost, 32 μM ethyl-labelled NEM, 23° C., 10.5 min) and 56% in assay [1] (190 min, read-out: initial Tre6Pase lost, 32 μM ethyl-labelled NEM, 23° C., 190 min). Also, the inhibition at 1900 µM in assay [1] (read-out: loss of Tre6Pase activity, 1.9 mM NEM, 24° C., about 0.17 mM dithiothreitol) was not below 98%; in assay [2] (1.9 mM NEM, 24° C., about 0.17 mM dithiothreitol, read-out: loss of Tre6P synthase activity), not above 24%.
On to `O=P(O)(O)O[C@H]1O[C@H](CO)[C@@H](O)[C@H](O)[C@H]1O` [glucose-1-phosphate], for which the “inhibition of Tre6P synthase activity” value in assay [3] was “about 25%”.
Turning to `O=C(COP(=O)(O)O)[C@@H](O)[C@H](O)[C@H](O)CO` [Fructose-1-phosphate], the “inhibition of Tre6P synthase activity” value in assay [3] is recorded as “about 25%”.
Regarding `Nc1ncnc2c1ncn2[C@@H]1O[C@H](COP(=O)(O)OP(=O)(O)O[C@H]2O[C@H](CO)[C@@H](O)[C@H](O)[C@H]2O)[C@@H](O)[C@H]1O` [ADPG, adenosine 5'-diphosphoglucose], the “effect on rate of appearance of radioactivity” value in the assay on extract of X2180 yeast is on record as “did not cause any significant increase”.
Consider `O=P(O)(O)OC[C@H]1O[C@@](CO)(OP(=O)(O)O)[C@@H](O)[C@@H]1O` [fructose-2,6-bisphosphate], for which the “inhibition of Tre6P synthase activity” value in assay [3] is on record as “about 25%”.
